# In US10785978B2, “Control and repellency of biting flies, house flies, ticks, ants, fleas, biting midges, cockroaches, spiders and stink bugs” (priority 2012, dated 2020):
# Experiments:
# Format in all cases: in vivo
# [1] = system: German cockroaches; assay: German cockroach repellency, choice of food stations in arena; conditions: 50% in acetone; at 4 hours
# Procedure: The efficacy of compounds of this invention to control or repel German cockroaches was illustrated using the following protocol. One food pellet each was placed on a paper square (station) treated with one of the repellent materials. Materials were diluted to 50% in acetone and a straight acetone station was also used. Both stations were placed on the same side of the arena. Cockroaches were starved for 2 days and then released into the arena. They were given a choice to feed on either food pellet. A control arena with an acetone treated station and an untreated station was also used. The distribution of cockroaches within the arena was recorded at 30 minute intervals over 4 hours. Repellency at 4 hours was calculated by the number of cockroaches on the untreated station vs. the total number of cockroaches on the stations.
# [2] = system: sand flies P. papatasi; assay: Sand fly bite test on treated human skin with K&D module; conditions: for percent biting, Treatment level 5%: 5% compound in isopropyl alcohol on human skin; for percent biting, Treatment level 5% / percent biting, Treatment level-10%: five minute exposure, percent of control biting taken as 100%; for percent biting, Treatment level-10%: 10% compound in isopropyl alcohol on human skin; for sand flies repelled: at 5%
# Procedure: Control against sand flies was determined by the following protocol as generally described in J. Med. Entomol. 43 (6), 1248-1252 (2006). Volunteers wearing short pants were seated. Using a skin-marking template and a washable-ink marker, skin areas represented by 3- by 4-cm floor opening of six cells of a K&D module were outlined on the outer, top and inner thigh position of each leg of the volunteers. The six treated cell rectangles each represented a random block, and each volunteer had three blocks on each of two thighs. All treatments against the sand flies P. papatasi, were pipetted onto a 4- by 5-cm rectangular area (so the area of skin covered by a treatment exceeded the template marks by 0.5 cm in every direction) of the subjects' skin with 55 ul of isopropyl alcohol/treatment containing 10% or 5% compound/ul isopropyl alcohol. Treating a slightly larger area ensured that the areas beneath each K&D module contained only treated skin. Skin treated with isopropyl alcohol alone served as control. In all tests adjacent cells of the K&D module were supplied with ten sand flies. The sand fly charged K&D module was positioned over the treated skin areas and the trap doors of the K&D module above the areas were opened. After a five minute skin exposure the trap doors were closed. The number of sand fly bites was recorded for each cell. The percent biting is the percent compared to the biting for the control which was taken as 100%.
# [3] = system: Brown Dog Ticks, Rhipicephalus sanguineus
# Description: The following protocol was employed to test compounds of this invention for toxicity (mortality) against ticks. There were 5 replicates of 5 dog ticks for each treatment. […] Filter paper strips were laid on a sheet of aluminum foil and enough of each of the test sample was applied to thoroughly saturate the paper. The paper was then rolled and placed inside a glass shell vial as to line the sides of the vial. A small paper disc, also saturated with the test sample, was then placed at the bottom of the vial. Brown Dog Ticks, Rhipicephalus sanguineus, were then introduced into the vials which were covered with aluminum foil, the inside of which was painted with some of the test sample. The ticks remained in the vials, constantly exposed to the test samples, for the duration of the test. A small hole was poked through the foil for ventilation. Each control replicate was subjected to the same procedures outlined above, except that they were not treated. The controls were placed in the same area as the test replicates for the duration of the test. Mortality observations were made at 24 hours. Ticks were classified as alive (able to move normally), moribund (those classified as moribund will show some movement, but will not be able to crawl in a coordinated manner, or will be unable to right themselves if placed on their backs), or dead (no movement after physical stimuli). All dead ticks were confirmed by probing or agitation to make sure that they are unable to move; any that show movement visible to the naked eye were recorded as moribund. At 24 hours the tick mortality was 0% for the control, 100% for γ-dodecalactone, 100% for methyl apritone and 76% for methyl dihydrojasmonate.
# [4] = system: house flies; assay: House fly repellency on treated filter paper food trays in cages; conditions: over 6 hours
# Procedure: The bottom of each cage was lined with brown craft paper and divided into 4 equal quadrants. Each quadrant housed a makeshift filter paper food tray. Two of the four filter papers were treated with repellent and two treated with isopropanol. Control cages contained filter papers that were treated with 4 filter papers of isopropanol only. The number of flies resting on filter paper per quadrant was recorded every 30 minutes for a total of 6 hours. Cages were rotated to eliminate positional bias. […] Each of the test samples were diluted in isopropyl alcohol.
# [5] = system: Brown Dog Ticks, Rhipicephalus sanguineus; assay: Brown Dog tick repellency on vertical filter paper strips
# Procedure: Control against Brown Dog ticks was determined in the following protocol. Strips of filter paper, 1″ by 3″, were placed on a sheet of aluminum foil treated with 1 ml each of the test samples and allowed to dry. The end of each treated strip was stapled to an untreated filter paper strip of the same dimensions. The stapled strips were suspended in a vertical position above a tray, with the treated half attached to a horizontal glass rod by a metal clip. The untreated half was lowered when the strip is vertically positioned. Brown Dog Ticks, Rhipicephalus sanguineus, mixed sexes, were purchased from a supplier. Five replicates of five ticks for each treatment regimen plus five additional replicates for the control were employed. Ticks shipped to the test site were given at least one day to acclimate to “shipping stress” before they are used for testing. Those tick specimens which appeared sluggish or moribund were not used. Suitable ticks were removed from their containers and allowed to quest on the free end of the test strip. Once present on the strip they were watched as they crawled up the strip until they contacted the treated paper. If the tick, once in contact with the treated zone, either turned around, stopped without proceeding further, or dropped off, the tick is classified as repelled. If it continued to crawl onto the treated strip, even after it stopped briefly, that tick was classified as not repelled. A maximum observation time of 1 minute per replicate was allowed for ticks to respond after reaching the treated area, but during the test, if more time was needed, the maximum observation time may have been adjusted at the discretion of the study coordinator. At the end of the observation time, the number of ticks repelled was recorded. Tick behavior was recorded when applicable, such as whether increased number of affected or repelled ticks occurred in successive replicates over time. After the completion of each treatment parameter, the testing chamber was ventilated for five minutes by turning on the exhaust fan and opening the door leading into the chamber. Ticks were used only once. Average number of ticks displaying each behavior category were calculated and compared to the control replicates.
# [6] = system: stable flies; assay: Stable fly probing on treated warmed blood-filled membranes; conditions: for Probes at 7% test compound: 7% in isopropyl alcohol on membrane; for Probes at 7% test compound / Probes at 15% test compound: twenty minutes, percent of control probes taken as 100%; for Probes at 15% test compound: 15% in isopropyl alcohol on membrane
# Procedure: Five replicates of 100 mixed-sex stable flies each were placed in screened cages. The cages were placed in such a way that the stable flies had access to five warmed, blood-filled membrane walls. The membranes were treated with methyl dihydrojasmonate, gamma-dodecalactone, methyl apritone, or DEET® all at 7% and at 15% in isopropyl alcohol, or isopropyl alcohol as a control. There were five replicates tested with a positional rotation of the repellent at each replicate. Fresh batches of stable flies were used for each replicate. Thus each test sample was tested on each of the five wells, which allowed any positional bias to be eliminated. The number of stable flies probing each well was recorded at two minute intervals for twenty minutes. The total number of probes on each well were tallied at the end of the twenty minute observation period and the average percentage repellency was calculated for each compound. An analysis of variance was conducted to compare the average number of probes on each treatment membrane. The number of probes for the control was taken as the 100% baseline and the percentage for the test compounds is the percent for the number of probes for the test compound compared to the number of control probes.
# [7] = system: brown marmorated stink bugs (BMSB); assay: Brown marmorated stink bug repellency, treated vs. untreated filter paper arena
# Procedure: The two semi-circle filter papers were aligned together to completely cover the bottom of the test arena. Control arenas were also set up in a similar fashion except both were treated with acetone. Five replicates of 5 BMSB were then introduced into both the treated and control arenas. By releasing them in the center of the arena, the BMSB were presented with a choice of treated vs. untreated substrate (or untreated vs. untreated in the control arenas). The repellency of the BMSB was recorded at 24 hours post-treatment.
# [8] = system: Pharaoh ants; assay: Pharaoh ant behaviour at treated-untreated interface on poster board; conditions: 50% in acetone; 5 minutes after release
# Procedure: Pharaoh ants were tested using the following protocol. The side of a 17″×23″ rectangular sheet of poster board was sprayed with the test sample or acetone, except for a region within a 6″ circle. The treated poster board was allowed to dry. Five worker ants were placed in the center of the 6″ untreated circle and allowed to wander outside the circle onto the treated surface. The behavior of the ants at the treated-untreated interface was recorded for 5 minutes after release. Test compounds were diluted in acetone.
# [9] = system: Brown Dog Ticks; assay: Second repellent assay against Brown Dog Ticks; conditions: 7% in isopropyl alcohol
# Procedure: Also, a second repellent assay was used to evaluate six test samples against Brown Dog Ticks. Five replicates of five ticks were given the opportunity to quest onto a vertical strip of untreated filter paper and then allowed to move upward toward a second vertical strip of filter paper treated with one of the six candidate repellents or DEET®. In the control situation, the second strip was treated with isopropanol. They were then observed for directional or behavioral changes caused in response to contact with the repellent. Ticks were recorded as either repelled or not repelled. Compounds were diluted in isopropyl alcohol. The percentages of ticks repelled are shown below in Table 6.
# [10] = system: Black Widow spiders; assay: Black Widow spider choice test in half-treated tube shelters; conditions: 5% in isopropanol; location after 24 hours
# Procedure: Control against Black Widow spiders was determined using the following protocol. One test container containing two card stock tube shelters, one half treated with a test sample and the other half treated with isopropanol was prepared. A spider was introduced in the center of the tube. The spider was then given a choice to move to one end of the shelters. The following day, its location is recorded and compared to the results from a shelter containing untreated half-shelters.
# On the day of the test one of the two shelters was sprayed with the test sample solution using a 2 oz pump spray bottle. Only the surfaces that the spider will most likely contact were treated. Therefore, only the inside of one of the shelter tubes, including the end disc (spiders will not be able to access the outside part of the shelter) were sprayed. The total amount of product was weighed and recorded. The treated surface was allowed to dry for a minimum of ½ hour, or until solvent could not be detected by smell. At this time the shelter tubes were assembled.
# Card stock paper tube shelters were constructed from 2 half-letter sized sheets (5½″×8½″) of paper, rolled and taped together to form a short tube. One end of each was covered with a circle of card stock paper, while the other end was later taped to the open end of the other half sheet, forming one long tube. […] The solvent-treated half was labeled with a “C” on the inner and outer walls with a pencil or a pen with solvent resistant ink. Prior to forming the final tube shelter, a semi-circular hole was cut into one of the margins of each sheet such that, once the two tubes are taped together, the holes correspond to the top and at the junction of the tubes for introduction of the spiders.
# Twenty-five arenas were prepared in this manner for each test sample. There were five replicates of five spiders. Twenty-five additional control arenas were also prepared. They were prepared the same way, except that areas to be sprayed were sprayed with isopropanol only.
# Replicates of five spiders were selected for each test formulation and for the control. The specimens were visually examined for overall physical condition. […] The spiders were transferred directly into the holding vials using flexible forceps or with a little coaxing with an artist brush. Because of their cannibalistic tendencies, each vial contained only one spider. There they were held until the time for testing.
# At the test start the spiders were placed directly in the middle, through the opening at the top of the shelter tube, and the opening covered, with only one spider per arena. […] They were left alone for 24 hours, after which time their location within the arena was recorded. Spiders present inside the shelter treated with the test repellent were considered tolerant.
molecule,measurement,setting,value
CCCCCC1C(=O)CCC1CC(=O)OCC=C(C)C (stereo not shown) [Prenyl dihydrojasmonate],% Repellency 4 hr,[1],87.5%
CCCCCC1C(O)CCC1CC(=O)OC (stereo not shown) [Methyl dihydrojasmolate],"percent biting, Treatment level 5%",[2],0%
same,"percent biting, Treatment level-10%",[2],0%
same,sand flies repelled,[2],100%
"CCCCCC1CC(C)=CC(O)C1 (stereo not shown) [3-Methyl-5-Pentyl-2-cyclohexenol, 3-methyl-5-pentyl-2-cyclohexenol]",morbidity at 24 hr,"[3]; 10%, constant exposure 24 hours",100%
same,24 hr mortality (%),[3]; in vivo,12%
"CCCCCCCCC1CCC(=O)O1 (stereo not shown) [gamma-Dodecalactone, gamma-dodecalactone]",% Repellency 4 hr,[1],96.6%
same,24 hr mortality (%),[3]; in vivo,100%
same,tick mortality at 24 hours,[3]; in vivo,100%
same,Overall % Repellency,[4]; 7.5% in isopropyl alcohol,100%
same,Mean % repelled,[5]; Neat,100%
same,ticks repelled,[5]; concentration not given,100%
same,Probes at 7% test compound,[6],6.2%
same,Probes at 15% test compound,[6],3.6%
same,repellency compared with DEET,[6]; at the same concentrations (7% and 15%),repelled better than DEET®
same,% Repellency at 24 hours,[7]; 10% in isopropyl alcohol,100%
same,% crossed without stopping,[8],82%
same,"% slowed, but crossed",[8],8%
same,% stopped at interface,[8],10%
"CCN(CC)C(=O)c1cccc(C)c1 [DEET ®, N,N-Diethyl-m-toluamide, reference compound]",Mean % repelled,[9],96%
same,Probes at 7% test compound,[6],45.9%
same,Probes at 15% test compound,[6],16.2%
CCCCCCCCCCCC1CCC(=O)O1 (stereo not shown) [gamma Pentadecalactone],% Repellency,[10],75.0%
same,Overall % Repellency,[4]; 7.5% in isopropyl alcohol,87%
"CCCCCCCCCC1CCC(=O)O1 (stereo not shown) [gamma Tridecalactone, gamma-tridecalactone]",% Repellency,[10],75.0%
same,Overall % Repellency,[4]; 5% in isopropyl alcohol,80%
same,Overall % Repellency,[4]; 7.5% in isopropyl alcohol,94%
same,Mean % repelled,[5]; 7.5% in isopropyl alcohol,100%
same,% Repellency at 24 hours,[7]; 5% in isopropyl alcohol,70%
Methyl apritol,"percent biting, Treatment level 5%",[2],12.5%
same,"percent biting, Treatment level-10%",[2],0%
same,sand flies repelled,[2],87.5%
Farnesyl cyclopentanone,% Repellency 4 hr,[1],100%
CCCCCCCCCC1CCCC(=O)O1 (stereo not shown) [delta Tetradecalactone],Overall % Repellency,[4]; 5% in isopropyl alcohol,76%
